Data set [1] can be described thus: physchem. Conditions: 37 °C, pH 7, aqueous buffer, thermodynamic from solid. As to the method:
Solubility as meant herein is measured using USP apparatus 2 (U.S. Pharmacopoeia 32-NF27) with agitation at 75 RPM in the dissolution medium of a phosphate buffer maintained at pH 6.8 and 37° C. Such low solubility makes preparing a useful pharmaceutical composition of acceptable size and efficacy especially difficult.
In a preferred embodiment, this is irrespective of the pharmacological effect it might have or ailment it is used to prevent or treat.
The pharmaceutical compositions, powders or granulates according to the invention comprise the hyperbranched polymer/API in specific weight ratios.

The conditions of data set [2]: pH 6.8.
Data set [3] is described as follows: physchem. To be noted: pH 6.8, aqueous buffer.
Data set [4] is described as follows: In vitro dissolution of glimepiride, USP Apparatus II (paddle), phosphate buffer pH 6.8. Format: physicochemical. Conditions: mixed with hyperbranched polymer at the ratio of the invention, 37 °C, figures 3 and 4. As to the method:
Approximately 50 % of the active ingredient (4 mg) is dissolved after 60 minutes of testing at following conditions: 37 °C in the USP Dissolution Tester, Apparatus II (Paddle method) using 900 ml of phosphate buffer (pH 6.8) as the dissolution medium and at a rotation rate of 75 rpm.
Dissolution of glimepiride was assessed at 37 °C by the USP Dissolution Tester, Apparatus II (Paddle method) at a rotation rate of 75 rpm using 900 ml of phosphate buffer (pH 6.8) as dissolution medium. The tested samples were added directly to the buffer in the correct amount to achieve a final concentration of 4,4 µg / mL glimepiride (equals therapeutic dose dissolved in 900 mL). Aliquots, each of 2 ml, from the dissolution medium were withdrawn at time intervals of 5, 15, 30, 60 minutes. The samples were withdrawn through syringe and filtered through Millipore filter and analyzed for glimepiride content using HPLC method.
The amount of dissolved glimepiride was estimated by reversed-phase HPLC (Waters Alliance) in a binary mode, with a photodiode array detector and a communication bus module. […]

A short description of data set [5]: In vitro dissolution of indapamide, USP Apparatus II (paddle), phosphate buffer pH 6.8. The class given is physicochemical. Conditions: with polyesteramide hyperbranched polymers, figure 5. As to the method: Dissolution of indapamide was assessed at 37 °C by the USP Dissolution Tester, Apparatus II (Paddle method), using 900 ml of phosphate buffer (pH 6.8) as the dissolution medium and at a rotation rate of 75 rpm. The tested samples were added directly to buffer in an amount in order to achieve a final concentration of 15 µg / mL indapamide. Aliquots, each of 2 ml, from the dissolution medium were withdrawn at time intervals of 5, 15, 30, 60 minutes. The samples were withdrawn through syringe and filtered through Millipore filter in order to separate the undissolved sample and analyzed for indapamide using UV spectrofotometry at 287 nm.

Data set [6] is described as follows: In vitro dissolution of pimobendan, USP Apparatus II (paddle), phosphate buffer pH 6.8. The class given is physicochemical. Conditions: admixed with Hybrane S1200, 2% and 5% of active ingredient. As to the method:
The samples of pimobendan were prepared as in examples 6 to 13. Dissolution of pimobendan was assessed at 37 °C by the USP Dissolution Tester, Apparatus II (Paddle method) at a rotation rate of 75 rpm, using 900 ml of phosphate buffer (pH 6.8) as the dissolution medium. The tested samples were added directly to the buffer in the correct amount to achieve a final concentration of 5.5 µg / mL pimobendan (equals therapeutic dose dissolved in 900 mL). Aliquots, each of 2 ml, from the dissolution medium were withdrawn at time intervals of 5, 15, 30, 60 minutes. The samples were withdrawn through syringe and filtered through Millipore filter in order to separate the undissolved sample and analyzed for pimobendan using HPLC method.

Setting [7] is: Solubility in the presence of Hybrane S1200.

Values after ≈ are worked out from the molar mass of the structure shown.

Regarding `O=C1C(O)=C([C@H]2CC[C@H](c3ccc(Cl)cc3)CC2)C(=O)c2ccccc21` [atovaquone], the solubility in the data set “physchem [1]” turned out to be 3 µg/mL (≈ 8.18 µM); in the data set “physchem [3]” (setting [7]) it was 3 µg/mL; in the data set “physchem [3]” (Solubility without polymer) it was 0.03 µg/mL (≈ 0.0818 µM). Also, the Increase in data set [2] turned out to be 100 fold.

In “physchem [1]”, `COc1ccc(Cl)cc1C(=O)NCCc1ccc(S(=O)(=O)NC(=O)NC2CCCCC2)cc1` [glibenclamide] gave a solubility of 60 µg/mL (≈ 121 µM).

With `Cc1ccc(S(=O)(=O)NC(=O)NN2CC3CCCC3C2)cc1` (stereo not shown) [gliclazide], the concentration in solution in “physchem [1]” (solubility) came to 50 µg/mL (≈ 155 µM).

In the case of `CCC1=C(C)CN(C(=O)NCCc2ccc(S(=O)(=O)NC(=O)N[C@H]3CC[C@H](C)CC3)cc2)C1=O` [glimepiride], the solubility of glimepiride entry in data set [4] was “significantly increased”. The solubility in “physchem [1]” came out at 1 µg/mL (≈ 2.04 µM); in “physchem [3]” (setting [7]), 10 µg/mL; in “physchem [3]” (Solubility without polymer), 1 µg/mL (≈ 2.04 µM). This compound also gave an Increase in data set [2] of 10 fold.

Turning to `CC1Cc2ccccc2N1NC(=O)c1ccc(Cl)c(S(N)(=O)=O)c1` (stereo not shown) [indapamide], the solubility in the data set “physchem [1]” stood at 700 µg/mL (≈ 1910 µM); in “physchem [3]” (setting [7]) it was 700 µg/mL; in “physchem [3]” (Solubility without polymer), 5 µg/mL (≈ 13.7 µM). Also, in data set [5], the “solubility of the indapamide” value was “remarkably enhance”. The Increase in data set [2] was determined as 140 fold.

Turning to `COc1ccc(-c2nc3ccc(C4=NNC(=O)CC4C)cc3[nH]2)cc1` (stereo not shown) [pimobendan], the “solubility of the active ingredient” value in data set [6] is recorded as “significantly increases”. Moreover, the solubility in the data set “physchem [1]” is 210 µg/mL (≈ 628 µM); in the data set “physchem [3]” (setting [7]) it was 210 µg/mL; in “physchem [3]” (Solubility without polymer), 4 µg/mL (≈ 12 µM). The compound further displayed an Increase in data set [2] of 50 fold.

For `CN1CC(=O)N2[C@H](c3ccc4c(c3)OCO4)c3[nH]c4ccccc4c3C[C@@H]2C1=O` [tadalafil], the solubility is 110 µg/mL (≈ 282 µM) in the data set “physchem [1]”, 110 µg/mL in “physchem [3]” (setting [7]) and 2 µg/mL (≈ 5.14 µM) in the data set “physchem [3]” (Solubility without polymer). In data set [2], this compound came in with an Increase of 55 fold.

(Values after EP2311435A1, “Pharmaceutical composition comprising poorly soluble active ingredient and hyperbranched polymer” (LEK Pharmaceuticals d.d., priority 2009, dated 2011).)
